“Also recorded” adds a separate entry of the source.
Assays:
Format in all cases: physicochemical
[1] = Competitive slurry experiments
Method: Competitive slurry experiments were carried out using ca. 10 mg of Pattern 1, Pattern 2/6 mixture and Pattern 3 were weighed out and added to a 1.5 mL glass vial. Samples were prepared using 100 μL aliquots of solvent until a mobile slurry was formed. Samples were stirred at ambient temperature for 48 hours. A second set of samples were stirred at 60° C. for 48 hours. All samples were collected, and the solids were isolated and analyzed by XRPD. The above technique was used to generate the images in FIG. 50, FIG. 51, and FIG. 55 through FIG. 59.

[2] = Thermodynamic solubility in water at pH 4.2
Method: Thermodynamic solubility was carried out for Pattern 1, Pattern 2/6 mixture, Pattern 3, amorphous di-HCl salts and Pattern 7 in water at pH 4.2. All samples were prepared at 30 mg/mL. Initial observations were made. The samples were agitated at ambient temperature for ca. 24 hours. The samples were collected and observations made. Observed solids were isolated via centrifugation. The mother liquor from the filtered sample was analyzed by HPLC. The pH 4.3 solution was prepared by diluting glacial acetic acid (11.6 mL) to 100 mL in deionized water, then adding sodium acetate (1.07 g) and acetic acid solution (5.9 mL) preparing up to 500 mL with deionized water; then the pH was adjusted to 4.2. The above technique was used to generate the images in FIG. 60.

[3] = Gravimetric Vapor Sorption (GVS); conditions: 25° C.
Method: Approximately 10-20 mg of sample was placed into a mesh vapor sorption balance pan and loaded into an IGASorp Moisture Sorption Analyzer balance by Hiden Analytical. The sample was subjected to a ramping profile from 40-90% relative humidity (RH) at 10% increments, maintaining the sample at each step until a stable weight had been achieved (98% step completion, minimum step length 30 minutes, maximum step length 60 minutes) at 25° C. After completion of the sorption cycle, the sample was dried using the same procedure to 0% RH, and finally taken back to the starting point of 40% RH. Three cycles were performed. The weight change during the sorption/desorption cycles were plotted, allowing for the hygroscopic nature of the sample to be determined. The above technique was used to generate the images in FIG. 40 and FIG. 41.

[4] = Dynamic Vapor Sorption (DVS)
Method: Approximately, 10-20 mg of sample was placed into a mesh vapor sorption balance pan and loaded into a DVS Intrinsic dynamic vapor sorption balance by Surface Measurement Systems. The sample was subjected to a ramping profile from 40-90% relative humidity (RH) at 10% increments, maintaining the sample at each step until a stable weight had been achieved (dm/dt 0.004%, minimum step length 30 minutes, maximum step length 500 minutes) at 25° C. After completion of the sorption cycle, the sample was dried using the same procedure to 0% RH and then a second sorption cycle back to 40% RH. Two cycles were performed. The weight change during the sorption/desorption cycles were plotted, allowing for the hygroscopic nature of the sample to be determined. XRPD analysis was then carried out on any solid retained. The above technique was used to generate the images in FIG. 5, FIG. 6, FIG. 47 and FIG. 48.

**Q.** With `CN1CCN(c2ccc(Nc3ncc4cc5n(c4n3)C3(CCCCC3)CNC5=O)nc2)CC1` [Pattern 1, 2′-((5-(4-methylpiperazin-1-yl)pyridin-2-yl)amino)-7′,8′-dihydro-6′H-spiro[cyclohexane-1,9′-pyrazino[1′,2′:1,5]pyrrolo[2,3-d]pyrimidin]-6′-one] as the molecule, how does the “stability compared to other morphic forms” value [1] read?
**A.** The value was “superior stability”.

**Q.** What about the “Observations at T = 24 hours” value ([2]; 30 mg/mL in water at pH 4.2, agitated at ambient temperature ca. 24 hours) of the same molecule?
**A.** Its value is “Yellow solution”.

**Q.** And the “Observations at T = 0 hours” value ([2]; 30 mg/mL in water at pH 4.2, ambient temperature, T = 0 hours)?
**A.** The value was “Yellow slurry”.

**Q.** And the “Change in Mass (%)-ref Desorption” value ([3]; Cycle 1, desorption, target RH 0%)?
**A.** Its value is 0.180%.

**Q.** What about the “Change in Mass (%)-ref Desorption” value ([3]; Cycle 1, desorption, target RH 10%) of the same molecule?
**A.** Its value is 2.320%.

**Q.** And the “Change in Mass (%)-ref Desorption” value ([3]; Cycle 1, desorption, target RH 20%)?
**A.** The value was 2.820%.

**Q.** What about the “Change in Mass (%)-ref Desorption” value ([3]; Cycle 1, desorption, target RH 30%) of the same molecule?
**A.** Its value is 3.110%.

**Q.** What about the “Change in Mass (%)-ref Desorption” value ([3]; Cycle 1, desorption, target RH 40%) of the same molecule?
**A.** The value was 3.340%.

**Q.** What about the “Change in Mass (%)-ref Desorption” value ([3]; Cycle 1, desorption, target RH 50%) of the same molecule?
**A.** The value was 3.580%.

**Q.** What about the “Change in Mass (%)-ref Desorption” value ([3]; Cycle 1, desorption, target RH 60%) of the same molecule?
**A.** Its value is 3.730%.

**Q.** And the “Change in Mass (%)-ref Desorption” value ([3]; Cycle 1, desorption, target RH 70%)?
**A.** Its value is 3.820%.

**Q.** And the “Change in Mass (%)-ref Desorption” value ([3]; Cycle 1, desorption, target RH 80%)?
**A.** Its value is 3.970%.

**Q.** What about the “Change in Mass (%)-ref Desorption” value ([3]; Cycle 1, desorption, target RH 90%) of the same molecule?
**A.** The value was 4.160%.

**Q.** And the “Change in Mass (%)-ref Sorption” value ([3]; Cycle 1, sorption, target RH 40%)?
**A.** The value was 3.420%.

**Q.** What about the “Change in Mass (%)-ref Sorption” value ([3]; Cycle 1, sorption, target RH 50%) of the same molecule?
**A.** Its value is 3.560%.

**Q.** And the “Change in Mass (%)-ref Sorption” value ([3]; Cycle 1, sorption, target RH 60%)?
**A.** The value was 3.720%.

**Q.** And the “Change in Mass (%)-ref Sorption” value ([3]; Cycle 1, sorption, target RH 70%)?
**A.** Its value is 3.800%.

**Q.** What about the “Change in Mass (%)-ref Sorption” value ([3]; Cycle 1, sorption, target RH 80%) of the same molecule?
**A.** Its value is 3.920%.

**Q.** What about the “Change in Mass (%)-ref Sorption” value ([3]; Cycle 1, sorption, target RH 90%) of the same molecule?
**A.** The value was 4.160%.

**Q.** And the “Change in Mass (%)-ref Desorption” value ([3]; Cycle 2, desorption, target RH 0%)?
**A.** Its value is 0.000%.

**Q.** And the “Change in Mass (%)-ref Desorption” value ([3]; Cycle 2, desorption, target RH 10%)?
**A.** Its value is 2.240%.

**Q.** What about the “Change in Mass (%)-ref Desorption” value ([3]; Cycle 2, desorption, target RH 20%) of the same molecule?
**A.** Its value is 2.680%.

**Q.** And the “Change in Mass (%)-ref Desorption” value ([3]; Cycle 2, desorption, target RH 30%)?
**A.** The value was 3.020%.

**Q.** And the “Change in Mass (%)-ref Desorption” value ([3]; Cycle 2, desorption, target RH 40%)?
**A.** Its value is 3.260%.

**Q.** And the “Change in Mass (%)-ref Desorption” value ([3]; Cycle 2, desorption, target RH 50%)?
**A.** Its value is 3.500%.

**Q.** And the “Change in Mass (%)-ref Desorption” value ([3]; Cycle 2, desorption, target RH 60%)?
**A.** Its value is 3.670%.

**Q.** What about the “Change in Mass (%)-ref Desorption” value ([3]; Cycle 2, desorption, target RH 70%) of the same molecule?
**A.** The value was 3.780%.

**Q.** And the “Change in Mass (%)-ref Desorption” value ([3]; Cycle 2, desorption, target RH 80%)?
**A.** Its value is 3.890%.

**Q.** What about the “Change in Mass (%)-ref Desorption” value ([3]; Cycle 2, desorption, target RH 90%) of the same molecule?
**A.** The value was 4.080%.

**Q.** And the “Change in Mass (%)-ref Sorption” value ([3]; Cycle 2, sorption, target RH 0%)?
**A.** Its value is 0.180%.

**Q.** What about the “Change in Mass (%)-ref Sorption” value ([3]; Cycle 2, sorption, target RH 10%) of the same molecule?
**A.** Its value is 2.300%.

**Q.** What about the “Change in Mass (%)-ref Sorption” value ([3]; Cycle 2, sorption, target RH 20%) of the same molecule?
**A.** The value was 2.770%.

**Q.** What about the “Change in Mass (%)-ref Sorption” value ([3]; Cycle 2, sorption, target RH 30%) of the same molecule?
**A.** Its value is 3.030%.

**Q.** What about the “Change in Mass (%)-ref Sorption” value ([3]; Cycle 2, sorption, target RH 40%) of the same molecule?
**A.** Its value is 3.290%.

**Q.** And the “Change in Mass (%)-ref Sorption” value ([3]; Cycle 2, sorption, target RH 50%)?
**A.** The value was 3.470%.

**Q.** And the “Change in Mass (%)-ref Sorption” value ([3]; Cycle 2, sorption, target RH 60%)?
**A.** The value was 3.660%.

**Q.** And the “Change in Mass (%)-ref Sorption” value ([3]; Cycle 2, sorption, target RH 70%)?
**A.** Its value is 3.780%.

**Q.** And the “Change in Mass (%)-ref Sorption” value ([3]; Cycle 2, sorption, target RH 80%)?
**A.** The value was 3.900%.

**Q.** What about the “Change in Mass (%)-ref Sorption” value ([3]; Cycle 2, sorption, target RH 90%) of the same molecule?
**A.** The value was 4.080%.

**Q.** And the “Change in Mass (%)-ref Sorption” value ([3]; Cycle 3, sorption, target RH 0%)?
**A.** The value was 0.000%.

**Q.** And the “Change in Mass (%)-ref Sorption” value ([3]; Cycle 3, sorption, target RH 10%)?
**A.** Its value is 2.250%.

**Q.** What about the “Change in Mass (%)-ref Sorption” value ([3]; Cycle 3, sorption, target RH 20%) of the same molecule?
**A.** Its value is 2.740%.

**Q.** What about the “Change in Mass (%)-ref Sorption” value ([3]; Cycle 3, sorption, target RH 30%) of the same molecule?
**A.** Its value is 3.020%.

**Q.** What about the “Change in Mass (%)-ref Sorption” value ([3]; Cycle 3, sorption, target RH 40%) of the same molecule?
**A.** Its value is 3.220%.

**Q.** And the “moisture adsorbed (DVS)” value ([4]; at 40% RH)?
**A.** The value was 3.00 wt %.

**Q.** And the “moisture adsorbed (DVS)” value ([4]; at 90% RH)?
**A.** Its value is 4.00 wt %.

**Q.** What about the “mass increase by DVS” value ([4]; between 0% and 90% RH) of the same molecule?
**A.** The value was 4%.

**Q.** What about the “XRPD analysis post-DVS (form stability)” value ([4]; dried sample at the conclusion of the DVS experiment) of the same molecule?
**A.** Its value is “confirmed Pattern 1; also recorded: no change”.

— patent publication US12534472B2, “Morphic forms of trilaciclib and methods of manufacture thereof” (Pharmacosmos Holding A/S, priority 2020, dated 2026)
